Each structure is given as a SMILES string.

The target of the test is T1, Muscarinic acetylcholine receptor M2 (Homo sapiens, UniProt P08172).
T1 sequence (P08172 whole entry): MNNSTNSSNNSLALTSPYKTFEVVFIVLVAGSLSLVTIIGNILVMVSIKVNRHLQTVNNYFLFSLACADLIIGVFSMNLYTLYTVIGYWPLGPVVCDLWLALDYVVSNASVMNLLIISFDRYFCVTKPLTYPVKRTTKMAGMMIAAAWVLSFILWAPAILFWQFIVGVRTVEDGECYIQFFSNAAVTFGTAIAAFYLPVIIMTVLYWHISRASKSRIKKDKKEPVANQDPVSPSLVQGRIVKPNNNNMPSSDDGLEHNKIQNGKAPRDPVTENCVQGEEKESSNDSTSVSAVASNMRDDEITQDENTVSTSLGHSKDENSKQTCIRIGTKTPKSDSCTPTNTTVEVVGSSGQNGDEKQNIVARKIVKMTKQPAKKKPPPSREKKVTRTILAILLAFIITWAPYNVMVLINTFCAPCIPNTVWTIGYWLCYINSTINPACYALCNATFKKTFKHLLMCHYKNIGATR
The test can be described thus: Binding affinity against cloned human muscarinic acetylcholine receptor M2.
As for `Cc1ccccc1C(=O)N1CCC(N2CCC(C3(c4ccc(C(=O)NC(C)C)cc4)OCCO3)CC2)CC1`, the Ki is 9 nM. This counts as single-digit nanomolar. In the case of `CC(C)(C)NC(=O)c1ccc(CC2CCN(C3CCN(C(=O)c4ccc(F)c5ccccc45)CC3)CC2)cc1` it was 18 nM; in that of `CC(C)NC(=O)c1ccc(CC2CCN(C3CCN(C(=O)c4ccc5[nH]ccc5c4)CC3)CC2)cc1`, 5 nM. Consider `CC(C)NC(=O)c1ccc(CC2CCN(C3CCN(C(=O)c4cccc5[nH]ccc45)CC3)CC2)cc1`, for which the Ki turned out to be 1.6 nM. `Cc1cccc(C(=O)N2CCC(N3CCC(C4(c5ccc(C(=O)NC(C)C)cc5)OCCO4)CC3)CC2)c1N` came in with a Ki of 2.7 nM. This Ki lies about 1.7-fold higher than the previous one. Regarding `Cc1ccccc1C(=O)N1CCC(N2CCC(Cc3ccc(C(=O)NC(C)C)cc3)CC2)CC1`, the Ki came out at 7 nM.

Compound `O=C(Nc1ccccc1)c1ccc(CC2CCN(C3CCN(C(=O)c4ccc(F)c5ccccc45)CC3)CC2)cc1` showed a Ki of 104 nM. With `Cc1cccc(C(=O)N2CCC(N3CCC(Cc4ccc(C(=O)NC(C)C)cc4)CC3)CC2)c1N`, the affinity, expressed as Ki, was 9 nM. `CC(C)NC(=O)c1ccc(CC2CCN(C3CCN(C(=O)c4ccccc4N)CC3)CC2)cc1` showed an inhibitory constant (Ki) of 78 nM. Compound `CC(C)NC(=O)c1ccc(CC2CCN(C3CCN(C(=O)c4c[nH]c5ccccc45)CC3)CC2)cc1` displayed a Ki of 6 nM. Next, `CC(C)NC(=O)c1ccc(CC2CCN(C3CCN(C(=O)c4ccccc4Cl)CC3)CC2)cc1`: 12 nM; `CC(C)NC(=O)c1ccc(C2(C3CCN(C4CCN(C(=O)c5ccc(F)c6ccccc56)CC4)CC3)OCCO2)cc1`: 2.4 nM; `Cc1c(N)cccc1C(=O)N1CCC(N2CCC(Cc3ccc(C(=O)NC(C)C)cc3)CC2)CC1`: 1.6 nM. With `Cc1ccccc1C(=O)N1CCC(N2CCC(Cc3ccc(C(=O)NC4CCCCC4)cc3)CC2)CC1`, affinity was put at a Ki of 15 nM. Take `CC(C)NC(=O)c1ccc(CC2CCN(C3CCN(C(=O)c4cccc5c(F)cc(F)cc45)CC3)CC2)cc1`: the Ki is 5 nM. The compound `CC(C)NC(=O)c1ccc(CC2CCN(C3CCN(C(=O)c4ccc(F)c5ccccc45)CC3)CC2)cc1` returned a Ki of 2.1 nM. Take `Cc1c(N)cccc1C(=O)N1CCC(N2CCC(C3(c4ccc(C(=O)NC(C)C)cc4)OCCO3)CC2)CC1`: the Ki worked out at 1.9 nM. For `CC(C)NC(=O)c1ccc(C2(C3CCN(C4CCN(C(=O)c5ccccc5Cl)CC4)CC3)OCCO2)cc1`, the Ki was determined as 35 nM. Against the preceding compound, the Ki is about 18-fold higher.

Turning to `CC(C)NC(=O)c1ccc(CC2CCN(C3CCN(C(=O)c4ccc(F)c5c(F)cccc45)CC3)CC2)cc1`, the Ki is 9 nM. In the case of `Cc1ccccc1C(=O)N1CCC(N2CCC(Cc3ccc(C(=O)Nc4ccccc4)cc3)CC2)CC1` it was 122 nM; in that of `Cc1ccccc1C(=O)N1CCC(N2CCC(Cc3ccc(C(=O)NC(C)(C)C)cc3)CC2)CC1`, 106 nM. `CC(C)S(=O)(=O)c1ccc(CC2CCN(C3CCN(C(=O)c4ccc(F)c5ccccc45)CC3)CC2)cc1` came in with a Ki of 17 nM. The compound `CC(C)NC(=O)c1ccc(C2(C3CCN(C4CCN(C(=O)c5cccc6[nH]ccc56)CC4)CC3)OCCO2)cc1` came in with a Ki of 1.1 nM.

The compound `O=C(NC1CCCCC1)c1ccc(CC2CCN(C3CCN(C(=O)c4ccc(F)c5ccccc45)CC3)CC2)cc1` registered a Ki of 1300 nM. Take `CC(C)NC(=O)c1ccc(CC2CCN(C3CCN(C(=O)c4cccc5nc[nH]c45)CC3)CC2)cc1`: the Ki amounted to 27 nM. `CC(C)NC(=O)c1ccc(CC2CCN(C3CCN(C(=O)c4ccnc5ccccc45)CC3)CC2)cc1` displayed a Ki of 40 nM.

Source of the values: ChEMBL document CHEMBL1147502, “Isopropyl amide derivatives of potent and selective muscarinic M2 receptor antagonists” (Bioorg Med Chem Lett, 2004).
